{
  "source": "patent US20100152100A1",
  "about": "“ACCELERATED THERAPY” (Gloucester Pharmaceuticals, Inc., priority 2008, published 2010)",
  "key": {"[1]": {"assay": "Accelerated romidepsin dosing, clinical trial experience (unit doses given intravenously over about one hour or less)"}, "[2]": {"assay": "Earlier clinical investigations of romidepsin: observed toxicities and deaths", "details": "early development; out of more than 450 patients"}, "[3]": {"details": "human, in vivo"}, "[4]": {"details": "patient five, (Breast Cancer), 8 mg/m^2"}, "[5]": {"details": "patient four, (Breast Cancer), 8 mg/m^2"}, "[6]": {"details": "patient two, (Multiple Myeloma), 10 mg/m^2"}, "[7]": {"details": "patient, (Multiple Myeloma), 8 mg/m^2"}},
  "data": [
    {"smiles": "C/C=C1\\NC(=O)[C@H]2CSSCC/C=C/[C@H](CC(=O)N[C@H](C(C)C)C(=O)N2)OC(=O)[C@H](C(C)C)NC1=O", "note": "[romidepsin, (1S,4S,10S,16E,21R)-7-[(2Z)-ethylidene]-4,21-diisopropyl-2-oxa-12,13-dithia-5,8,20,23-tetraazabicyclo[8.7.6]tricos-16-ene-3,6,9,19,22-pentanone]", "values": [
      {"measurement": "electrocardiogram findings, lab abnormalities, adverse events, and serious adverse events overall", "setting": "[1]; 15 patients on accelerated dosing regimens", "value": "consistent with the results seen in prior clinical trials utilizing romidepsin"},
      {"measurement": "Clinically Significant Lab Abnormalities", "setting": "[1]; [4]", "value": "None"},
      {"measurement": "Related SAEs", "setting": "[1]; [4]", "value": "None"},
      {"measurement": "ECG Findings (Machine Alerts)", "setting": "[1]; patient five, (Breast Cancer), 8 mg/m^2, full wrapped cell: Nonspecific T wave changes, low QRS voltages, tachycardia, possible anterior infarction, left atrial abnormality", "value": "Nonspecific T wave"},
      {"measurement": "Related Adverse Events", "setting": "[1]; patient five, GPI-06-0005 (Breast Cancer), 8 mg/m^2 on Days 1, 8, and 15 of Cycle 2 and beyond, 6 accelerated doses, full wrapped cell: Fatigue, dysphagia, dizziness", "value": "Fatigue,"},
      {"measurement": "Clinically Significant Lab Abnormalities", "setting": "[1]; [5]", "value": "None"},
      {"measurement": "Related SAEs", "setting": "[1]; [5]", "value": "None"},
      {"measurement": "ECG Findings (Machine Alerts)", "setting": "[1]; patient four, (Breast Cancer), 8 mg/m^2, full wrapped cell: Left anterior fascicular block, low QRS voltages, nonspecific T wave changes, possible left ventricular hypertrophy, possible anterior infarction, tachycardia, sinus arrhythmia", "value": "Left anterior"},
      {"measurement": "Related Adverse Events", "setting": "[1]; patient four, GPI-06-0005 (Breast Cancer), 8 mg/m^2 on Days 1, 8, and 15 of Cycle 2 and beyond, 5 accelerated doses, full wrapped cell: Fatigue, vomiting, anemia, anorexia", "value": "Fatigue,"},
      {"measurement": "Related SAEs", "setting": "[1]; patient one, (Multiple Myeloma), 10 mg/m^2", "value": "None"},
      {"measurement": "ECG Findings (Machine Alerts)", "setting": "[1]; patient one, (Multiple Myeloma), 10 mg/m^2, full wrapped cell: Sinus tachycardia, nonspecific ST changes, low QRS voltages, junctional depression prior to baseline", "value": "Sinus tachycardia,"},
      {"measurement": "Clinically Significant Lab Abnormalities", "setting": "[1]; patient one, (Multiple Myeloma), 10 mg/m^2, full wrapped cell: Thrombocytopenia, anemia, neutropenia, increased serum creatinine, hyperpcalcemia", "value": "Thrombocytopenia,"},
      {"measurement": "Related Adverse Events", "setting": "[1]; patient one, GPI-08-0006 (Multiple Myeloma), 10 mg/m^2 on Days 1, 8, and 15 of Cycle 1 and beyond, 2 accelerated doses, full wrapped cell: Flushing, cold feeling, nausea, vomiting, back pain, canker sore, fatigue, UTI, hypokalemia, hypophosphatemia", "value": "Flushing,"},
      {"measurement": "Related SAEs", "setting": "[1]; patient three, (Multiple Myeloma), 10 mg/m^2", "value": "None"},
      {"measurement": "ECG Findings (Machine Alerts)", "setting": "[1]; patient three, (Multiple Myeloma), 10 mg/m^2, full wrapped cell: Nonspecific T waves changes possibly due to myocardial ischemia, results consistent with baseline ECGs", "value": "Nonspecific T waves"},
      {"measurement": "Clinically Significant Lab Abnormalities", "setting": "[1]; patient three, (Multiple Myeloma), 10 mg/m^2, full wrapped cell: Thrombocytopenia, anemia, neutropenia", "value": "Thrombocytopenia,"},
      {"measurement": "Related Adverse Events", "setting": "[1]; patient three, GPI-08-0006 (Multiple Myeloma), 10 mg/m^2 on Days 1, 8, and 15 of Cycle 1 and beyond, 13 accelerated doses, full wrapped cell: Nausea, vomiting, flushing, constipation, headache, body aches, abdominal pain, diarrhea, bloating, vein erythema", "value": "Nausea,"},
      {"measurement": "QTC (ECG machine alert)", "setting": "[1]; [6]", "value": "close to 450"},
      {"measurement": "Related SAEs", "setting": "[1]; [6]", "value": "None"},
      {"measurement": "ECG Findings (Machine Alerts)", "setting": "[1]; patient two, (Multiple Myeloma), 10 mg/m^2, full wrapped cell: T wave changes, conduction defect of right bundle branch block, low QRS spatial velocity, QTC close to 450", "value": "T wave changes,"},
      {"measurement": "Clinically Significant Lab Abnormalities", "setting": "[1]; patient two, (Multiple Myeloma), 10 mg/m^2, full wrapped cell: Thrombocytopenia, anemia, neutropenia, increased serum creatinine", "value": "Thrombocytopenia,"},
      {"measurement": "Related Adverse Events", "setting": "[1]; patient two, GPI-08-0006 (Multiple Myeloma), 10 mg/m^2 on Days 1, 8, and 15 of Cycle 1 and beyond, 2 accelerated doses, full wrapped cell: Knee pain, headache, skin crawling, cold feet, malaise, bowel urgency, nausea, vomiting", "value": "Knee pain,"},
      {"measurement": "Adverse Events reported directly after infusion", "setting": "[1]; patient, 78 kg, 26 mg on days 1, 8, and 15 of 28 day cycle, accelerated dose Day 15 of cycle 8, full wrapped cell: Nausea, vomiting and diarrhoea, heamaturia", "value": "Nausea,"},
      {"measurement": "LAB", "setting": "[1]; patient, 78 kg, 26 mg, accelerated dose Day 15 of cycle 8, full wrapped cell: Hypocalcaemia noted", "value": "Hypocalcaemia"},
      {"measurement": "ECG", "setting": "[1]; patient, 78 kg, 26 mg, accelerated dose Day 15 of cycle 8, full wrapped cell: Post infusion ECG - peaked T waves laterally and subtle ST depression laterally but otherwise normal ECG next day was normal", "value": "Post infusion"},
      {"measurement": "Adverse Events reported directly after infusion", "setting": "[1]; patient, 95.8 Kg, 30.5 mg on days 1, 8, and 15 of 28 day cycle, accelerated dose Day 1 of cycle 8", "value": "None"},
      {"measurement": "lateral ST depression on post infusion ECG", "setting": "[1]; patient, 95.8 Kg, 30.5 mg, accelerated dose Day 1 of cycle 8, asymptomatic", "value": "of 1 mm."},
      {"measurement": "LAB", "setting": "[1]; patient, 95.8 Kg, 30.5 mg, accelerated dose Day 1 of cycle 8, full wrapped cell: No immediate effect but hypocalcaemia later", "value": "No immediate"},
      {"measurement": "ECG", "setting": "[1]; patient, 95.8 Kg, 30.5 mg, accelerated dose Day 1 of cycle 8, full wrapped cell: Post infusion ECG asymptomatic - showed some lateral ST depression of 1 mm. ECG 2 hours later showed improvement", "value": "Post infusion"},
      {"measurement": "Related SAEs", "setting": "[1]; patient, 103 Kg, (Multiple Myeloma), 10 mg/m^2", "value": "None"},
      {"measurement": "ECG Findings (Machine Alerts)", "setting": "[1]; patient, 103 Kg, (Multiple Myeloma), 10 mg/m^2, full wrapped cell: Nonspecific T wave changes, ST junctional depression", "value": "Nonspecific T wave"},
      {"measurement": "Clinically Significant Lab Abnormalities", "setting": "[1]; patient, 103 Kg, (Multiple Myeloma), 10 mg/m^2, full wrapped cell: Thrombocytopenia, anemia, neutropenia, hypoalbuminemia", "value": "Thrombocytopenia,"},
      {"measurement": "Related Adverse Events", "setting": "[1]; patient, 103 Kg, GPI-08-0006 (Multiple Myeloma), 10 mg/m^2 on Days 1, 8, and 15 of Cycle 1 and beyond, 4 accelerated doses, full wrapped cell: Nausea, thrombocytopenia, fatigue, vein erythema, vomiting", "value": "Nausea,"},
      {"measurement": "Adverse Events reported directly after infusion", "setting": "[1]; patient, 13 mg on days 1, 8, and 15 of 28 day cycle, accelerated dose Day 15 of cycle 2", "value": "None"},
      {"measurement": "LAB", "setting": "[1]; patient, 13 mg, accelerated dose Day 15 of cycle 2, full wrapped cell: No abnormalities", "value": "No"},
      {"measurement": "ECG", "setting": "[1]; patient, 13 mg, accelerated dose Day 15 of cycle 2, full wrapped cell: Post dose ECGs taken on same day and next day, no abnormalities notes", "value": "Post dose"},
      {"measurement": "Related SAEs", "setting": "[1]; patient, (Giant Cell), 12 mg/m^2", "value": "None"},
      {"measurement": "Clinically Significant Lab Abnormalities", "setting": "[1]; patient, (Melanoma), 8 mg/m^2", "value": "None"},
      {"measurement": "Related SAEs", "setting": "[1]; patient, (Melanoma), 8 mg/m^2", "value": "None"},
      {"measurement": "ECG Findings (Machine Alerts)", "setting": "[1]; patient, (Melanoma), 8 mg/m^2, full wrapped cell: Nonspecific T wave changes possibly due to myocardial ischemia, low QRS voltages, sinus tachycardia, possible inferior infarction", "value": "Nonspecific T wave"},
      {"measurement": "Clinically Significant Lab Abnormalities", "setting": "[1]; [7]", "value": "None"},
      {"measurement": "Related SAEs", "setting": "[1]; [7]", "value": "None"},
      {"measurement": "ECG Findings (Machine Alerts)", "setting": "[1]; patient, (Multiple Myeloma), 10 mg/m^2, full wrapped cell: T wave inversion, low QRS voltages, reversed R wave progression", "value": "T wave inversion,"},
      {"measurement": "Clinically Significant Lab Abnormalities", "setting": "[1]; patient, (Multiple Myeloma), 10 mg/m^2, full wrapped cell: Thrombocytopenia, anemia, neutropenia, hypoalbuminemia, hypokalemia", "value": "Thrombocytopenia,"},
      {"measurement": "Related SAEs", "setting": "[1]; patient, (Multiple Myeloma), 10 mg/m^2, full wrapped cell: Vomiting, headache, dehydration", "value": "Vomiting,"},
      {"measurement": "Clinically Significant Lab Abnormalities", "setting": "[1]; patient, (NHL), 8 mg/m^2", "value": "None"},
      {"measurement": "Related SAEs", "setting": "[1]; patient, (NHL), 8 mg/m^2", "value": "None"},
      {"measurement": "ECG Findings (Machine Alerts)", "setting": "[1]; patient, (NHL), 8 mg/m^2, full wrapped cell: Probable normal variant, borderline lateral T wave changes, low QRS voltages", "value": "Probable normal"},
      {"measurement": "Related SAEs", "setting": "[1]; patient, (Ovarian Cancer), 12 mg/m^2, full wrapped cell: Atrial fibrillation", "value": "Atrial"},
      {"measurement": "Related Adverse Events", "setting": "[1]; patient, GPI-06-0005 (Melanoma), 8 mg/m^2 on Days 1, 8, and 15 of Cycle 2 and beyond, 3 accelerated doses, full wrapped cell: Fatigue, vomiting", "value": "Fatigue,"},
      {"measurement": "Related Adverse Events", "setting": "[1]; patient, GPI-06-0005 (NHL), 8 mg/m^2 on Days 1, 8, and 15 of Cycle 2 and beyond, 3 accelerated doses", "value": "Fatigue"},
      {"measurement": "ECG Findings (Machine Alerts)", "setting": "[1]; patient, GPI-08-0006 (Multiple Myeloma), 8 mg/m^2 on Days 1, 8, and 15 of Cycle 1 and beyond, 4 accelerated doses", "value": "None"},
      {"measurement": "Related Adverse Events", "setting": "[1]; patient, GPI-08-0006 (Multiple Myeloma), 10 mg/m^2 on Days 1, 8, and 15 of Cycle 1 and beyond, 1 accelerated dose, full wrapped cell: Nausea, vomiting, headache, dehydration", "value": "Nausea,"},
      {"measurement": "rate of serious adverse events vs unit doses administered over about 4 hours", "setting": "[1]; unit doses over less than about one hour", "value": "without increasing the rate of serious adverse events"},
      {"measurement": "deaths during clinical investigations", "setting": "[2]", "value": 6},
      {"measurement": "serial serum troponin levels and multiple gated acquisition (MUGA) scans", "setting": "[3]", "value": "consistently normal"},
      {"measurement": "severity of observed toxicities", "setting": "[3]", "value": "mild to moderate"}
    ]}
  ]
}
